Data from US7629359B2, “Use of piperidine derivatives as dermo-decontracting agents” (L'Oreal, priority 2004, dated 2009).

Test system: dermis equivalent model consisting of a matrix of collagen seeded with normal human fibroblasts
Assay: Dermo-decontracting effect on dermis equivalent model (spontaneous contraction of collagen gel)
Assay type: cell-based
Conditions: for activity as dermo-decontracting agent in the test of Example 1: dermis equivalent test presented in Example 1

SMILES	activity as dermo-decontracting agent in the test of Example 1	reduction of the contraction of the fibroblasts compared with the control (1 μM test compound, on average over the duration of the experiment (0, 4, 8 and 24 hours), experiment repeated three times) [%]
CCOC(=O)C1=C(C)NC(C)=C(C(=O)OC)C1c1cccc([N+](=O)[O-])c1 (stereo not shown) [nitrendipine]	not active	
CN1C(=O)CN=C(c2ccccc2)c2cc(Cl)ccc21 [diazepam]	not active	
O=C(O)/C=C\C(=O)O.c1ccc(CCCCN2CCC(c3ccccc3)CC2)cc1 [maleic acid salt of 4-phenyl-1-(4-phenylbutyl)piperidine]		17
COc1ccc([C@@H]2Sc3ccccc3N(CCN(C)C)C(=O)[C@@H]2OC(C)=O)cc1 [diltiazem]	not active	
